Source: patent US5053070A, “Pyrimidine derivatives, preparation processes thereof, herbicide containing the same, and herbicidal compositions containing the same along with other active ingredient” (Mitsui Toatsu Chemicals, Incorporated, priority 1988, dated 1991)
Values after ≈ are worked out from the molar mass of the structure shown. Values belong to the compound of their own block, whether it stands above or below them.

Legend:
rice [1] = experiment: Treatment of soil under submerged condition, pre-emergence (Test 4), injury; assay type: in vivo; settings: 30 g ai/a granule, 30 days later
Method: (§1) 1/5000-are Wagner pots were filled with soil. Seeds or tubers of barnyardgrass, Monochoria vaginalis, bulrush, Sagittaria pygmaea, Cyperus seroylnus and Eleocharis kuroguwai were seeded or planted under submerged condition. Two pairs of rice seedlings (2-3 leaf stage), which had been reared in advance, were transplanted to each pot and were allowed to germinate in a green house. Each pair consisted of two rice seedlings. One day later (before emergence of weeds), each pot was treated with a granule which had been prepared by processing a predetermined amount of the test composition in accordance with a similar method to the method described in Formulation Example 9. The state of emergence of weeds and the state of injury of rice were observed 30 days later.
In the table, the degrees of damages of the test plants and the degrees of injury of rice are shown in a similar manner to Example 2.

rice [2] = experiment: Treatment of soil under submerged condition, post-emergence (Test 5), injury; assay type: in vivo; settings: 30 g ai/a granule, 30 days later
Method: as §1, with “serroylnus” for “seroylnus”, “grow” for “germinate”, “When the barnyardgrass grew to two-leaf stage,” for “One day later (before emergence of weeds),”
In the table, the degrees of damages of the test plants and the degrees of injury of the rice are shown in a similar manner to Example 2.

green foxtail = experiment: Upland foliar application test (Test 3); assay type: in vivo; settings: 30 g ai/a, foliar spray at 2-3 leaves, 30th day
Method: (§2) Resin-made 1/10000-are pots were filled with the soil of an upland field. Redroot pigweed, common lambsquarters, foxtail meadow, johnsongrass, barnyardgrass, green foxtail, large crabgrass, soybean, peanut and cotton were separately seeded and were allowed to germinate in a green house. When each plant grew to the stage of 2-3 leaves, an emulsion formulated from a predetermined amount of each test compound in a similar manner to the method described in Formulation Example 11 was diluted with water to a predetermined dilution rate and then sprayed at an application rate equal to 5 l per are onto the foliage of each plant by means of a pressure-operated ULV (ultra low volume) sprayer. Influence to the crops and weeds were observed on the 30th day after the spray of the herbicides. The results are shown in Table 4 in which the degree of damages of each test plant and the degree of injury to each crop are shown in a similar manner to Test 2.

common lambsquarters = experiment: Upland foliar application test (Test 3); assay type: in vivo; settings: 30 g ai/a, foliar spray at 2-3 leaves, 30th day
Method: as §2

johnsongrass = experiment: Upland foliar application test (Test 3); assay type: in vivo; settings: 30 g ai/a, foliar spray at 2-3 leaves, 30th day
Method: as §2

large crabgrass = experiment: Upland foliar application test (Test 3); assay type: in vivo; settings: 30 g ai/a, foliar spray at 2-3 leaves, 30th day
Method: as §2

foxtail meadow = experiment: Upland foliar application test (Test 3); assay type: in vivo; settings: 30 g ai/a, foliar spray at 2-3 leaves, 30th day
Method: as §2

barnyardgrass = experiment: Upland foliar application test (Test 3); assay type: in vivo; settings: 30 g ai/a, foliar spray at 2-3 leaves, 30th day
Method: as §2

redroot pigweed = experiment: Upland foliar application test (Test 3); assay type: in vivo; settings: 30 g ai/a, foliar spray at 2-3 leaves, 30th day
Method: as §2

[3] = system: ALS (acetolactate syntase); experiment: ALS enzyme assay (Test 1); assay type: biochemical, pea; settings: 1,000 ppm (0.5 mg/0.5 ml)
Method: To determine the selectivity in enzyme level between crops and weeds, and ALS enzyme assay was conducted using pea as a representative of broadleaf crops and barnyardgrass as a representative of narrowleaf weeds.
After seeds of pea and barnyardgrass were allowed to germinate at 25° C. for 8-14 days in a dark place, partially-purified suspensions (Suspensions A) of acetolactate syntase were separately obtained from seedlings in accordance with the method described in the literature, Plant Physiology, 75, 827-831.
In a test tube, 0.5 mg of one of test compounds was weighed, followed by the addition of 0.15 ml of a 20 mM K2 HPO4 solution and 0.25 ml of a reaction substrate medium which consisted of 40 mM of K2 HPO4, 40 mM of sodium pyruvate, 1 mM of TPP, 1 mM of MgCl2 and 20 μM of FAD so that 0.4 ml of a reaction solution (Solution B) was prepared. Added to 0.4 ml of Solution B was 0.1 ml of suspension A. After the resultant mixture was shaken for 1 hour in a thermostat water bath controlled at 30° C., 50 μl of 6N sulfuric acid were added to terminate the reaction.
Next, the reaction-terminated liquid mixture was transferred into a thermostat water bath controlled at 60° C. and was heated for 15 minutes. Thereafter, 0.5 ml of a 0.5% creatine solution and 0.5 ml of a 5% alkaline α-naphthol solution were added, and the resultant mixture was maintained at 60° C. for 15 minutes. As a result, the test solution developed a pink-red color. After the above operation, the absorbance of the test solution at 525 nm was measured by a spectrophotometer (Absorbance 1 of Test Compound).
On the other hand, the absorbance (Absorbance 2 of Blank) of a solution obtained by subjecting a portion of Solution B, said portion being free of the test compound, to the above operation and the absorbance (Absorbance 3 of sulfuric acid terminated) of another solution obtained by subjecting another portion of Solution B, said portion containing 50 μl of 6N sulfuric acid as a test compound, were measured at the same time. Based on the values of the respective measurements, the enzyme assay at 1,000 ppm (0.5 mg/0.5 ml) of each compound was determined. [formula]

soybean = experiment: Upland foliar application test (Test 3), crop injury; assay type: in vivo; settings: 30 g ai/a, foliar spray at 2-3 leaves, 30th day
Method: as §2

peanut = experiment: as above; assay type: in vivo; settings: 30 g ai/a, foliar spray at 2-3 leaves, 30th day
Method: as §2

cotton = experiment: as above; assay type: in vivo; settings: 30 g ai/a, foliar spray at 2-3 leaves, 30th day
Method: as §2

narrowleaf waterplantain = experiment: Petri dish test (Test 6); assay type: in vivo; settings: 336 h; seeds on filter paper, 25° C., 14 days; read-out: I80 (ppm)
Method: A filter paper was placed in each glass-made Petri dish having a diameter of 9 cm. A compound dissolved in acetone was added in a predetermined amount. The filter paper was then dried in air to remove acetone. Seeds of narrowleaf waterplantain were placed on the filter paper and 10 ml of water were poured into the Petri dish. The seeds were allowed to grow at 25° C. in a bright room. Fourteen days later, the state of growth of narrowleaf water-plantain was observed.
In the table, the degree of damages of the test plant was determined by comparing the state of growth of the plant with that of the plant in an untreated group and is shown in accordance with the following standard: […]

SMILES: COc1cc(OC)nc(Oc2ccccc2C=NOCC#Cc2ccccc2)n1 [compound 42]
- Injury Rice (rice [1]): 0 (91-100 (No damages))
- Injury Rice (rice [2]): 0 (91-100 (No damages))
- Herbicidal effects Green foxtail (green foxtail): 5 (0-5 (Death))
- Herbicidal effects Common lambsquarters (common lambsquarters): 4 (6-10 (Severe damages))
- Herbicidal effects Johnsongrass (johnsongrass): 5 (0-5 (Death))
- Herbicidal effects Large crabgrass (large crabgrass): 3 (11-40 (Medium damages))
- Herbicidal effects Foxtail meadow (foxtail meadow): 5 (0-5 (Death))
- Herbicidal effects Barnyardgrass (barnyardgrass): 5 (0-5 (Death))
- Herbicidal effects Redroot pigweed (redroot pigweed): 5 (0-5 (Death))
- Inhibitory activity (%) Pea [3]: 0%
- Injury Soybean (soybean): 0 (91-100 (No damages))
- Injury Peanut (peanut): 0 (91-100 (No damages))
- Injury Cotton (cotton): 0 (91-100 (No damages))
- IC80 (narrowleaf waterplantain): 17 µg/mL (≈ 43.7 µM)

SMILES: COc1cc(OC)nc(Oc2ccccc2C=NOCCc2ccccc2)n1 [compound 23]
- Injury Rice (rice [1]): 0 (91-100 (No damages))
- Injury Rice (rice [2]): 0 (91-100 (No damages))
- Herbicidal effects Green foxtail (green foxtail): 4 (6-10 (Severe damages))
- Herbicidal effects Common lambsquarters (common lambsquarters): 3 (11-40 (Medium damages))
- Herbicidal effects Johnsongrass (johnsongrass): 5 (0-5 (Death))
- Herbicidal effects Large crabgrass (large crabgrass): 3 (11-40 (Medium damages))
- Herbicidal effects Foxtail meadow (foxtail meadow): 4 (6-10 (Severe damages))
- Herbicidal effects Barnyardgrass (barnyardgrass): 3 (11-40 (Medium damages))
- Herbicidal effects Redroot pigweed (redroot pigweed): 3 (11-40 (Medium damages))
- Inhibitory activity (%) Pea [3]: 0%
- Injury Soybean (soybean): 0 (91-100 (No damages))
- Injury Peanut (peanut): 0 (91-100 (No damages))
- Injury Cotton (cotton): 0 (91-100 (No damages))
- IC80 (narrowleaf waterplantain): 100 µg/mL (≈ 264 µM)

SMILES: COc1cc(OC)nc(Oc2ccccc2C=NOCC=Cc2ccc(F)cc2)n1 [compound 29]
- Injury Rice (rice [1]): 0 (91-100 (No damages))
- Injury Rice (rice [2]): 1 (71-90 (Slight damages))
- Herbicidal effects Green foxtail (green foxtail): 4 (6-10 (Severe damages))
- Herbicidal effects Common lambsquarters (common lambsquarters): 4 (6-10 (Severe damages))
- Herbicidal effects Johnsongrass (johnsongrass): 5 (0-5 (Death))
- Herbicidal effects Large crabgrass (large crabgrass): 4 (6-10 (Severe damages))
- Herbicidal effects Foxtail meadow (foxtail meadow): 4 (6-10 (Severe damages))
- Herbicidal effects Barnyardgrass (barnyardgrass): 5 (0-5 (Death))
- Herbicidal effects Redroot pigweed (redroot pigweed): 5 (0-5 (Death))
- Inhibitory activity (%) Pea [3]: 11%
- Injury Soybean (soybean): 0 (91-100 (No damages))
- Injury Peanut (peanut): 0 (91-100 (No damages))
- Injury Cotton (cotton): 0 (91-100 (No damages))
- IC80 (narrowleaf waterplantain): 8 µg/mL (≈ 19.5 µM)

Further lines, with some results ahead:

- Inhibitory activity (%) Pea [3]: 0%
SMILES: CC=CCON=Cc1ccccc1Oc1nc(OC)cc(OC)n1 [compound 8]
- Injury Rice (rice [1]): 1 (71-90 (Slight damages))
- Injury Rice (rice [2]): 1 (71-90 (Slight damages))
- Herbicidal effects Green foxtail (green foxtail): 5 (0-5 (Death))
- Herbicidal effects Common lambsquarters (common lambsquarters): 4 (6-10 (Severe damages))
- Herbicidal effects Johnsongrass (johnsongrass): 5 (0-5 (Death))
- Herbicidal effects Large crabgrass (large crabgrass): 3 (11-40 (Medium damages))
- Herbicidal effects Foxtail meadow (foxtail meadow): 5 (0-5 (Death))
- Herbicidal effects Barnyardgrass (barnyardgrass): 4 (6-10 (Severe damages))
- Herbicidal effects Redroot pigweed (redroot pigweed): 5 (0-5 (Death))
- Injury Soybean (soybean): 0 (91-100 (No damages))
- Injury Peanut (peanut): 0 (91-100 (No damages))
- Injury Cotton (cotton): 0 (91-100 (No damages))
- IC80 (narrowleaf waterplantain): 40 µg/mL (≈ 121 µM)

- Inhibitory activity (%) Pea [3]: 0%
SMILES: C=C(Cl)CON=Cc1ccccc1Oc1nc(OC)cc(OC)n1 [Compound No. 14]
- Injury Rice (rice [1]): 0 (91-100 (No damages))
- Injury Rice (rice [2]): 1 (71-90 (Slight damages))
- Herbicidal effects Green foxtail (green foxtail): 5 (0-5 (Death))
- Herbicidal effects Common lambsquarters (common lambsquarters): 4 (6-10 (Severe damages))
- Herbicidal effects Johnsongrass (johnsongrass): 5 (0-5 (Death))
- Herbicidal effects Large crabgrass (large crabgrass): 5 (0-5 (Death))
- Herbicidal effects Foxtail meadow (foxtail meadow): 5 (0-5 (Death))
- Herbicidal effects Barnyardgrass (barnyardgrass): 5 (0-5 (Death))
- Herbicidal effects Redroot pigweed (redroot pigweed): 4 (6-10 (Severe damages))
- Injury Soybean (soybean): 0 (91-100 (No damages))
- Injury Peanut (peanut): 0 (91-100 (No damages))
- Injury Cotton (cotton): 0 (91-100 (No damages))
- IC80 (narrowleaf waterplantain): 100 µg/mL (≈ 286 µM)
